Test results taken from US9045488B2, “PAA nanoparticles for tumor treatment and imaging” (Photolitec, LLC, priority 2012, dated 2015).
“Also recorded” adds a separate entry of the source.

Tests used:
Colon 26 cancer cells = test: MTT assay, percent survival of Colon 26 cancer cells with/without light treatment; assay type: cell-based; conditions: Colon 26 cells, 24 h incubation, no light or light 0.25-2 Joules; relative to the unconjugated compound
Excerpt: (§1) FIG. 3 is a graph showing percent survival of Colon 26 cancer cells relative to concentration in the form of MTT Assay of compound PS815 vs. PS815 conjugated to PAA nanoparticle vs. PS815 both conjugated and post-loaded on PAA nanoparticle without light treatment.
as §1, with “4” for “3”, “nanoparticles. Light treatment was done at 0.25 Joules following 24 h incubation in Colon 26 cells.” for “nanoparticle without light treatment.”
as §1, with “5” for “3”, “nanoparticles. Light treatment was done at 0.5 Joules following 24 h incubation in Colon 26 cells.” for “nanoparticle without light treatment.”
as §1, with “6” for “3”, “nanoparticles. Light treatment was done at one Joule following 24 h incubation in Colon 26 cells. […]” for “nanoparticle without light treatment.”

COLO-26 tumor = test: In vivo fluorescence imaging, Maestro GNIR-Flex, mice with induced COLO-26 tumor; parameters: species or system Balb/c mice; conditions: 4-48 hours post i.v. 0.47 mmoles/kg; excitation 575-605 nm, emission 645 nm long pass
Excerpt: The images are color enhanced by computer assignment of color depth relative to fluorescent intensity. Exposure was 100 ms (fluorescence 0 and 8 ms 9 white light). […] The images are color enhanced by computer assignment of color depth relative to fluorescent intensity. […] The images are color enhanced by computer assignment of color depth relative to fluorescent intensity. […] The images are color enhanced by computer assignment of color depth relative to fluorescent intensity.

Substance: 20-carboxyphenyl-2-[1-hexyloxyethyl]-2-devinyl pyropheophorbide-a methyl ester [PS812]
- toxicity to the tumor cells (MTT assay, percent survival), effect of conjugation with nanoparticles (Colon 26 cancer cells): unexpectedly increases toxicity to the cancer cells
- fluorescent image clarity and definition / fluorescence imaging (COLO-26 tumor): unexpectedly superior fluorescent imaging; also recorded: superiority of fluorescence imaging
